According to EP3723746B1, “PHENOXY ACIDS FOR THE TREATMENT OF NEUROMUSCULAR DISORDERS” (NMD Pharma A/S, priority 2017, dated 2019):

What was measured:
soleus muscles = assay: Measurement of force in an in vitro model: recovery of contractile force of isolated rat soleus nerve-muscle preparation after tubocurarine
Description: Recovery of force is quantified as the percentage of the force prior to tubocurarine that is recovered by the compound.
The current invention relates to compounds that inhibit CIC-1 ion channels and increase muscle excitability and thereby improve muscle function in clinical conditions where muscle activation is failing. Such conditions result in loss of contractile function of skeletal muscle, weakness and excessive fatigue. In this series of experiments the compounds were tested for their ability to restore contractile function of isolated rat muscle when the neuromuscular transmission had been compromised akin to neuromuscular disorders.
Experimentally, soleus muscles from 4-5 week old rats were isolated with the motor nerve remaining attached. The nerve-muscle preparations were mounted in experimental setups that enabled electrical stimulation of the motor nerve. Stimulation of the motor nerve led to activation of the muscle fibres and ensuing force production that was recorded.
After mounting the nerve-muscle preparation in the experimental setup, the contractile function of the muscle was initially assessed under the control conditions (Figure 2A). […] The experimental condition mimics the failing neuromuscular transmission in a range of neuromuscular disorders. After addition of tubocurarine the contractile force declined over the next 90 mins to 10-50 % of the control force. 50 µM of the test compound was then added and the contractile force recovered despite the continued presence of tubocurarine. To quantify the ability of the compound to restore force the percentage of the initial force that was restored was determined after 40 mins of compound exposure (Figure 2B) and the point increase is reported in Table 3. Table 3: Percentage increase of initial force that was restored

human CIC-1 channels = target: T1, human CIC-1 channels (Homo sapiens, UniProt P35523); assay: Automated patch-clamp on the human isoform of CIC-1 expressed in CHO cells; assay type: cell-based; conditions: compound added intracellularly vs control cell patches; positive shift reflects CIC-1 inhibition
T1 construct: host or cells: CHO cells constitutively expressing human ClC-1
T1 sequence (P35523 whole entry, canonical isoform): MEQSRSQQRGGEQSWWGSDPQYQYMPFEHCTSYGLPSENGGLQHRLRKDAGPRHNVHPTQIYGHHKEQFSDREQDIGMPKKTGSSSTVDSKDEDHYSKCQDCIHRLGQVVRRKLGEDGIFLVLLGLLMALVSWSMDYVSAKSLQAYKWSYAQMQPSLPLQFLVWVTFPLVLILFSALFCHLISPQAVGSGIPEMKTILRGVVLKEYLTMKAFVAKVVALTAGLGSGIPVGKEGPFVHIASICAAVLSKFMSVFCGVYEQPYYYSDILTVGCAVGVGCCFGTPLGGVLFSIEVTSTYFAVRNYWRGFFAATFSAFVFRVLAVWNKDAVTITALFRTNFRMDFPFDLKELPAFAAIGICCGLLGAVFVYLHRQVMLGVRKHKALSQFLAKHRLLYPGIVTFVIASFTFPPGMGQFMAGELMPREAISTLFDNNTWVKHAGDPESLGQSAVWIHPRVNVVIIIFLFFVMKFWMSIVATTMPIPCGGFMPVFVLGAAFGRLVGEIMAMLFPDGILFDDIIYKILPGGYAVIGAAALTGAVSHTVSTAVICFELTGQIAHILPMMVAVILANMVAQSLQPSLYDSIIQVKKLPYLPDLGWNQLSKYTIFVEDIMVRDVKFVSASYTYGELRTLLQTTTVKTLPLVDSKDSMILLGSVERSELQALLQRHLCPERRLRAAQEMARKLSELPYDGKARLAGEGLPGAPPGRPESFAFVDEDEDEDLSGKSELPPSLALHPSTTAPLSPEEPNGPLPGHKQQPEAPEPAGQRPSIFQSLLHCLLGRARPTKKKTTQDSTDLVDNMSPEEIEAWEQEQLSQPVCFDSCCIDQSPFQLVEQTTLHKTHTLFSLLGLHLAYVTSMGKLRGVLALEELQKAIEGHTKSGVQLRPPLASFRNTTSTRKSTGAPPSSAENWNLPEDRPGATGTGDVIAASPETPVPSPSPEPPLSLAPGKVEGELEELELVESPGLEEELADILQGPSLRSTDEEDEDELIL
Description: The investigatory goal of these experiments was to evaluate how compounds affect the open probability and current amplitude of human CIC-1 channels expressed in CHO cells. Experiments were performed using an automated patch clamp system that allowed high throughput testing of whole cell patches together with both intracellular and extracellular addition of compound.
Automated whole cell patch clamp experiments were performed with the Qpatch 16 system (Sophion Bioscience, Ballerup, Denmark) at room temperature. Data acquisition and analysis were performed in the Qassay software (ver. 5.6, Odense).
To evoke CIC-1 currents in whole cell patches, the membrane potential was initially stepped from a holding potential of -30 mV to +60 mV for 100 ms and then to various test voltages (sweeps) ranging from +120 mV to -140 mV in steps of 20 mV for 300 ms. To obtain tail currents, the membrane potential was stepped to -100 mV after each test voltage for 300 ms and then relaxed to -30 mV for 2 sec between sweeps (Figure 3). I/V relationships for whole cell instant and steady state current amplitudes were obtained by plotting average current densities at the beginning and at the end of the 300 ms step against the membrane potential (Figure 4).
In order to determine the relative overall open probability (P0), the instantaneous tail currents were normalized to the maximal tail current obtained following the most positive voltage step and plotted against the test voltage. Plots of normalized tail currents from each whole cell patch were then fitted to a Boltzmann function allowing determination of half activation voltages (V1/2, Figure 5).
For automated patch clamp experiments extracellular solutions contained: 2 mM CaCl2, 1 mM MgCl2, 10 mM HEPES, 4 mM KCI, 145 mM NaCl, 10 mM Glucose, pH adjusted to 7.4 with NaOH (2 M). Osmolality adjusted to ~320 using sucrose.
Intracellular solutions contained: 80 mM CsF, 60 mM CsCI, 5/1 mM KOH/EGTA, 10 mM HEPES, 10 mM NaCl, pH adjusted to 7.2 with NaOH (2 M). Osmolality adjusted to ~320 mOsm using sucrose.
Cells used in patch clamp experiments were Chinese hamster ovary cells (CHO) constitutively expressing human CIC-1 channels. The amino acid sequence encoded by the cDNA used to create this cell line was identical to the translated sequence for GenBank accession number NM_000083.2. Cells were produced by Charles River (Catalogue CT6175, Cleveland OH, USA) in a cryopreserved format. Experiments were performed on the cells directly after thawing (3 × 10^6 cells used in each experiment).
To evaluate the compound effect on CIC-1, when applied directly to the intracellular side of the cell membrane, the half activation voltage, V1/2, was determined from whole cell patches with compound added to the intracellular solution and then compared to V1/2 determined from control cell patches with only vehicle added to the intracellular solution. Additionally, the effect of extracellular added compound was evaluated by determine V1/2 and steady state current amplitudes before and after exchanging the extracellular solution to contain compound.
The difference in half activation voltage of CIC-1 channels, ΔV1/2, was determined as the difference between the cell patches treated intracellularly with compound and control cells patches and is reported in Table 4 below. A positive shift in ΔV1/2 is reflecting CIC-1 channel inhibition by the tested compound. P-values of <0.05 is considered significant. […]

Lewis rats = assay: Measurement of in situ muscle contractile characteristics (isometric hindlimb force under cisatracurium block); assay type: in vivo; conditions: 40 mg/kg i.v., cisatracurium infusion, 3 experiments
Description: Isometric hindlimb force was measured in 12-week old female Lewis rats in the presence and absence of compound.
Rats were placed under anesthesia with isoflurane (2-4%), intubated and subsequently connected to a micro ventilator (Microvent 1, Hallowell EMC, US). Two stimulation electrodes were inserted through the skin to stimulate the sciatic nerve. A small incision was made proximal to the ankle, to expose the Achilles tendon, which was tied by cotton string, and connected to a force transducer (Fort250, World Precision Instruments) with adjustable position (Vernier control). The Achilles tendon was then cut distal to the attached cotton string. The rat was placed on a heated pad, and to prevent movement artefacts from contraction of the ankle dorsiflexors, the foot was fixated by tape on a footplate.
Muscle contractile properties were assessed by applying an electrical current (under supramaximal voltage conditions) to the nerve and recording the force generated by the muscle. The muscle was stretched until maximal force was obtained, when assessed by 2 Hz stimulation. Isometric force was measured every 30 seconds at 12 Hz (Twitch), 10 pulses, and at every 5 minutes at 80 Hz (Tetanic) for 1 second (80 pulses). This stimulation pattern was employed throughout the experiment, expect in few cases where 80 Hz stimulation was replaced by 12 Hz (10 pulses). […] When the level of neuromuscular inhibition was stable, the test article was injected i.v. at the chosen concentration. The effect of test article was assessed on its ability to increase force generated from the stimulation pattern applied. The effect was assessed in the ability to increase force per se (tetanic, 80 Hz, stimulation), and the ratio between individual twitch peaks (12 Hz stimulation). The effect was monitored for at least 1 hour after injection of test article. In addition, the time from injection of test article to maximal effect on force (both twitch and tetanic) was noted and the time for the effect to disappear (return to baseline), if possible. When appropriate the infusion of neuromuscular blocking agent was ceased, with the stimulation pattern continued, and the return of force to control levels was monitored. Animals were sacrificed by cervical dislocation while still fully sedated.

C#Cc1cc(Br)ccc1O[C@@H](C)C(=O)O [Compound A-19, (2S)-2-(4-bromo-2-ethynylphenoxy)propanoic acid]
average force (AUC) relative to initial force (soleus muscles; Figure 2: 50 µM compound after 90 min incubation in tubocurarine, 3 muscles): recovered
activation at 50 µM (soleus muscles; Rattus norvegicus, 40 min, 50 µM test compound, after 90 mins 115 nM tubocurarine, percentage of the initial force restored after 40 mins of compound exposure, read-out: Point increase): 31%
ΔV1/2 (human CIC-1 channels): 7.7 mV
average increase in twitch peaks (Lewis rats; 12 Hz stimulation): 9.6%
average increase in tetanic force (Lewis rats; 80 Hz stimulation): 44.5%
